From patent US20100249402A1, “NOVEL BENZAMIDINE DERIVATIVES, PROCESS FOR THE PREPARATION THEREOF AND PHARMACEUTICAL COMPOSITION FOR PREVENTING OR TREATING OSTEPOROSIS COMPRISING THE SAME” (DONG WHA PHARMACEUTICAL CO. LTD., priority 2007, published 2010) come the findings set out here.

For one series, the system named is HOS. Put plainly: Cytotoxicity test (MTT), HOS. Type of series: cell-based. To be noted: 10^−6 M, cultured for 72 hrs, in comparison with the control group. The protocol:
(§1) The cytotoxic effect of the benzamidine derivative of the present invention was evaluated by carrying out the experiment described below.
(§2) The test substance was diluted in an appropriate solvent at a concentration of 10^−2 M. This substance was diluted in an appropriate culture medium for the cells used in the cytotoxicity test to a concentration of 10^−6M, and loaded into a 96-well plate in 100 μl per well. The cell lines to be used in the cytotoxicity test were plated on a 96-well plate in a dose of 1.0×10^4 cell/100 μl per well, and cultured for 72 hrs. 25 μl of MTT[3-(4,5-dimethyl-2-thiazolyl)-2,5-diphenyl-2H-tetrazolium bromide] dissolved in PBS (2 mg/mL) were added before 4 hrs of the end of culture. After completion of the reaction, the plates were centrifuged, the medium was discarded and 100 μl of DMSO was added to dissolve formazan. Finally, the absorbance of the developed plates was measured at 540 nm. The survival rates of the cells were expressed as % concentration values in comparison with the control group.

The test system of a further series is MC3T3-E1. Nature of the series: Cytotoxicity test (MTT), MC3T3-E1. Type of series: cell-based. The note with it: 10^−6 M, cultured for 72 hrs, in comparison with the control group. The protocol: as §1, §2
The next series deals with calvaria. Nature of the series: Cytotoxicity test (MTT), calvaria. Type of series: cell-based. The note with it: 10^−6 M, cultured for 72 hrs, in comparison with the control group. As for the experimental part:
as §1, §2

Series [1] relates to osteoclast differentiation. Nature of the series: Inhibitory effects on osteoclast differentiation (bone marrow cell/osteoblast co-culture, TRAP staining). Format: cell-based, mice. The note with it: Mus musculus, Osteoclast, 168 h, read-out: Inhibition of osteoclast differentiation (%). As for the experimental part:
The effect of the benzamidine derivative of the present invention on osteoclast formation and differentiation process was evaluated via co-culture with an osteoblast.
Tibia was aseptically ectomized from 6 to 8-week-old male ddY mice to harvest bone marrow cells by using a syringe (21G, Korea Green Cross). The bone marrow cells were suspended in 5 mL of an α-MEM medium (Gibco BRL Co., supplemented with sodium bicarbonate (2.0 g/L), streptomycin (100 mg/L) and penicillin ([…]), filtered and then sterilized). The harvested cells were centrifuged at 600×g for 5 minutes to collect the whole quantity. To remove the red blood cells in the bone marrow cells, 3 mL of Tris HCl (0.83% NH4Cl, pH 7.5) was added and well mixed. After centrifugation, the numbers of the eukaryotic cells in the harvested bone marrow cells were counted, and then immediately used for a co-culture system.
The progenitor bone and the parietal bone were aseptically ectomized from 1 to 2-day-old neonatal ICR mice, washed with a phosphate butter solution (PBS), and treated with a mixed enzyme solution (0.2% collagenase and 0.1% dispase) six to seven times (10, 10, 10, 20, 20 and 20 min), and then 3 to 6 groups of the cells, in which a large volume of cells having osteoblastic characteristics were contained, were intensively collected, and washed with medium (serum-free α-MEM). The washed cells were cultured in the α-MEM medium containing 10% FBS for 2 to 3 days. After sub-culturing, the collected cells were used for this experiment, and diluted to a concentration of 1×10^6 cells/mL for storage at −70° C.
The benzamidine derivative of the present invention was dissolved in a sterile distilled water or ethanol to be diluted to a desired concentration. The final volume of the sample added to the cell culture medium was set at a ratio of 1:1000.
The bone marrow cells prepared in the above 1-1 and the osteoblast were co-cultured. Both the bone marrow cells (25,000 cells/cm^2) and the osteoblast (10,000 cells/cm^2) were plated in a 96-well plate using α-MEM medium containing FBS, and then cultured with the samples to be tested for 7 days. Differentiation factors, such as dexamethasone (10^−7 M) and vitamin D (10^−8 M), were also co-added to the medium from the first day of cultivation. The medium was changed with a fresh media containing a mixture of the samples and the differentiation factors every 2 to 3 days.
TRAP was used as a marker to measure the matured osteoclast in consideration of its characteristics showing a positive reaction to a TRAP staining solution.
The TRAP staining solution was prepared in such the manner that 5 mg of naphthol AS-MS phosphate (sigma N-4875) as a substrate and 25 mg of a coloring agent (Fast Red Violet LB salt) were dissolved in N,N-dimethylformamide (about 0.5 mL). 50 ml of a 0.1 N […] buffer solution containing 50 mM tartaric acid (pH 5.0) was added thereto, and the mixture was stored in a refrigerator prior to use as a staining solution.
After culturing the cells for 7 days, the medium was removed from the wells, the cells were once washed with PBS, and then fixed with PBS containing 10% formalin for 2 to 5 min. The cells were fixed again in a mixed solution of ethanol and acetone (1/1) for about 1 min, and dried off. The cells were further treated by the TRAP staining solution for 15 minutes, and washed with water and dried off. The osteoclasts with 3 or more nuclei showing a TRAP-positive reaction were counted under a microscopic examination. Each of tests was confirmed at least three times. The inhibitory effect on osteoclast differentiation of each experimental group, relative to negative controls, was expressed as a percentage (%).

[2] abbreviates: 1 μm, 7 days co-culture, TRAP-positive osteoclasts with 3 or more nuclei, relative to negative controls.

The structures appear in SMILES notation. Like-named read-outs stand apart in the source and are kept apart here.

As usually defined, the inhibition is how much of the control response was suppressed. Consider `CNc1nc(-c2ccc(OCCCCCOc3ccc(C(=N)NO)cc3)cc2)c(N2CCOCC2)s1` [Example 23, N-hydroxy-4-{5-[4-(2-methylamino-5-morpholin-4-yl-thiazol-4-yl)-phenoxy]-pentyloxy}-benzamidine], for which the Cell survival rate with HOS is 104.0%; in the series with MC3T3-E1 it was 92.0%; in the series with calvaria, 95.8%. In addition, the inhibition at 1 µM in series [1] (setting [2]) turned out to be 58.9%.
For `CN(Cc1ccccc1)c1nc(-c2ccc(OCCCCCOc3ccc(C(=N)NO)cc3)cc2)c(CN2CCOCC2)s1` [Example 27, N-hydroxy-4-(5-{4-[2-(benzyl-methyl-amino)-5-morpholin-4-ylmethyl-thiazol-4-yl]-phenoxy}-pentyloxy)-benzamidine], in that order: 104%, 102%, 106% and 77%.
For the compound `N=C(NO)c1ccc(OCCCCCOc2ccc(-c3nc(N4CCOCC4)sc3N3CCOCC3)cc2)cc1` [Example 5, N-hydroxy-4-{5-[4-(2,5-di-morpholin-4-yl-thiazol-4-yl)-phenoxy]-pentyloxy}-benzamidine], the Cell survival rate in the series on HOS was 100%; in the series with MC3T3-E1, 93%; with calvaria, 98%. Further, the inhibition at 1 µM in series [1] (setting [2]) worked out at 98%.
Take `CN(CCN1CCOCC1)c1nc(-c2ccc(OCCCCCOc3ccc(C(=N)NO)cc3)cc2)c(CN2CCOCC2)s1` [Example 28, N-hydroxy-4-[5-(4-{2-[methyl-(2-morpholin-4-yl-ethyl)-amino]-5-morpholin-4-ylmethyl-thiazol-4-yl}-phenoxy)-pentyloxy]-benzamidine]: the Cell survival rate with HOS stood at 114%; in the series on MC3T3-E1, 11%; with calvaria it was 104%. In series [1] (setting [2]), the inhibition at 1 µM came to 100%.
As for `COCCNCc1sc(N(C)CCN2CCOCC2)nc1-c1ccc(OCCCCCOc2ccc(C(=N)NO)cc2)cc1` [Example 33, N-hydroxy-4-[5-(4-{5-[(2-methoxy-ethylamino)-methyl]-2-[methyl-(2-morpholin-4-yl-ethyl)-amino]-thiazol-4-yl}-phenoxy)-pentyloxy]-benzamidine], the Cell survival rate with HOS was found to be 110%; with MC3T3-E1, 104%; with calvaria, 94%. The inhibition at 1 µM in series [1] stood at 100%.
For `Cc1nc(-c2ccc(OCCCCCOc3ccc(C(=N)NO)cc3)cc2)c(NC(=O)c2ccncc2)s1` [Example 38, N-hydroxy-4-[5-(4-{2-methyl-5-[(pyridine-4-carbonyl)-amino]-thiazol-4-yl}-phenoxy)-pentyloxy]-benzamidine], the Cell survival rate worked out at 117.6% in the series on HOS, 100.0% with MC3T3-E1 and 94.6% with calvaria. In addition, the inhibition at 1 µM in series [1] (setting [2]) came out at 78.6%.
For the compound `Cc1nc(-c2ccc(OCCCCCOc3ccc(C(=N)NO)cc3)cc2)c(CN2CCN(C)CC2)s1` [Example 9, N-hydroxy-4-(5-{4-[2-methyl-5-(4-methyl-piperazin-1-ylmethyl)-thiazol-4-yl]-phenoxy}-pentyloxy)-benzamidine], the Cell survival rate is given as 95% in the series with HOS, 98.8% with MC3T3-E1 and 92.3% in the series with calvaria. Moreover, the inhibition at 1 µM in series [1] came to 96.4%.
For `CN(CCN1CCOCC1)c1nc(-c2ccc(OCCCCCOc3ccc(C(=N)NO)cc3)cc2)c(CN2CCSCC2)s1` [Example 29, N-hydroxy-4-[5-(4-{2-[methyl-(2-morpholin-4-yl-ethyl)-amino]-5-thiomorpholin-4-ylmethyl-thiazol-4-yl}-phenoxy)-pentyloxy]-benzamidine], in that order: 109%, 109%, 99% and 97%.
For `COCCN(CCOC)Cc1sc(N(C)CCN2CCOCC2)nc1-c1ccc(OCCCCCOc2ccc(C(=N)NO)cc2)cc1` [Example 30, N-hydroxy-4-[5-(4-{5-{[bis-(2-methoxy-ethyl)-amino]-methyl}-2-[methyl-(2-morpholin-4-yl-ethyl)-amino]-thiazol-4-yl}-phenoxy)-pentyloxy]-benzamidine], in that order: 107%, 105%, 103% and 93%.
Turning to `Cc1nc(-c2ccc(OCCCCCOc3ccc(C(=N)NO)cc3)cc2)c(N2CCOCC2)s1` [Example 1, N-hydroxy-4-{5-[4-(2-methyl-5-morpholin-4-yl-thiazol-4-yl)-phenoxy]-pentyloxy}-benzamidine], the Cell survival rate in the series with HOS was determined as 105.6%; in the series with MC3T3-E1, 85.9%; in the series on calvaria, 91.5%. In addition, the inhibition at 1 µM in series [1] (setting [2]) is 94%.
The corresponding values for `N=C(NO)c1ccc(OCCCCCOc2ccc(-c3nc(-c4ccccc4)sc3N)cc2)cc1` [Example 45, N-hydroxy-4-{5-[4-(5-amino-2-phenyl-thiazol-4-yl)-phenoxy]-pentyloxy}-benzamidine] are 104%, 81%, 83% and 91%.
